Laboratory results: patent publication US8920559B2, “Screening for solid forms by ultrasound crystallization and cocrystallization using ultrasound” (Aptuit (West Lafayette), LLC, priority 2004, dated 2014)

Experiments:
[1] = White, Amber and Yellow polymorphic forms of WAY; literature (Yeadon 1985; Xiaorong He 2000); cited from earlier work
[2] = cocrystal compared with crystals of fluoxetine HCl
[3] = Form I vs Form II, room temperature; Zhang et al. 2002; cited from earlier work

## CC(=O)Nc1ccc(C)cc1[N+](=O)[O-] [amber form, 4-methyl-2-nitroacetanilide]
[1]
  relative stability of the three forms: least stable

## CNCCC(Oc1ccc(C(F)(F)F)cc1)c1ccccc1.Cl.O=C(O)c1ccccc1 (centres unmarked) [fluoxetine HCl:benzoic acid]
[2]
  dissolution rate: lower dissolution rate

## Cc1ccnc(NS(=O)(=O)c2ccc(N)cc2)n1 [sulfamerazine Form II, Sulfamerazine]
[3]
  relative stability of polymorphic forms: most stable form at room temperature

## CC(=O)Nc1ccc(C)cc1[N+](=O)[O-] [white form, 4-methyl-2-nitroacetanilide]
[1]
  relative stability of the three forms: most stable form

## CC(=O)Nc1ccc(C)cc1[N+](=O)[O-] [yellow form, 4-methyl-2-nitroacetanilide]
[1]
  relative stability of the three forms: more stable than the amber form
